Reference: paper PMC2096529 (Purinergic Signalling, 2005)

How the values were obtained:
Experiment in all cases: Fluo-3 calcium mobilization, FLIPR, […]1 cells
Format in all cases: cell-based
human P2Y1 receptor = human P2Y1 receptor (Homo sapiens, UniProt P47900)
human P2Y2 receptor = human P2Y2 receptor (Homo sapiens, UniProt P41231)
human P2Y6 receptor = human P2Y6 receptor (Homo sapiens, UniProt Q15077)
human P2Y4 receptor = human P2Y4 receptor (Homo sapiens, UniProt P51582)
Sequence of human P2Y4 receptor (P51582 whole entry): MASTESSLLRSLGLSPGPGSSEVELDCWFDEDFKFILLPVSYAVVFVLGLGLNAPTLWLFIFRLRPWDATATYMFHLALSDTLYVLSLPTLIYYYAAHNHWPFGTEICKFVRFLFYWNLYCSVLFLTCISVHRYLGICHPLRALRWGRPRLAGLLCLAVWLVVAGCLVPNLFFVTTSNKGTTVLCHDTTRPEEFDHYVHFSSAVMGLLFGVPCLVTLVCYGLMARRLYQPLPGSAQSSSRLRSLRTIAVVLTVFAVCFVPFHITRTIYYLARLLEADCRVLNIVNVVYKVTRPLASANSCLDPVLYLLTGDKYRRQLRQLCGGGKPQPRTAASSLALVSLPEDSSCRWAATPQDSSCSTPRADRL

Sequence of human P2Y1 receptor (P47900 whole entry): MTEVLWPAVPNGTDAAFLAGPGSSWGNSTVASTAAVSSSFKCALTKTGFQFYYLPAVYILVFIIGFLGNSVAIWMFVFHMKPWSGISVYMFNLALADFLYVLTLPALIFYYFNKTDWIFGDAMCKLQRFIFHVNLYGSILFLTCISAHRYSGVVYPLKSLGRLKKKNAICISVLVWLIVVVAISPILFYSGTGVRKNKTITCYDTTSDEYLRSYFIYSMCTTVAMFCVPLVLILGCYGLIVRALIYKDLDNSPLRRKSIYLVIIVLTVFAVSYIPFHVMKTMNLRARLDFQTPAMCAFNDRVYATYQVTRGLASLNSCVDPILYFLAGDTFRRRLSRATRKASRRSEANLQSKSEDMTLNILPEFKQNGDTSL
Sequence of human P2Y6 receptor (Q15077 whole entry): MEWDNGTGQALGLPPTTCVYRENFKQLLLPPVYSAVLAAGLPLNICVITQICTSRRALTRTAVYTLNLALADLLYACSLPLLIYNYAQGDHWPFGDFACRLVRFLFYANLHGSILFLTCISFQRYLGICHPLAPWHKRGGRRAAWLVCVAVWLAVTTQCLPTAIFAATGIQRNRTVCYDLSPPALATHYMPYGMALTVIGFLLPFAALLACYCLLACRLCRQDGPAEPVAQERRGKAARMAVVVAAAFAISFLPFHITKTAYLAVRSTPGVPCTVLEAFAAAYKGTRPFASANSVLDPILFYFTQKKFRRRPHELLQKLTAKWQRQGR
Sequence of human P2Y2 receptor (P41231 whole entry): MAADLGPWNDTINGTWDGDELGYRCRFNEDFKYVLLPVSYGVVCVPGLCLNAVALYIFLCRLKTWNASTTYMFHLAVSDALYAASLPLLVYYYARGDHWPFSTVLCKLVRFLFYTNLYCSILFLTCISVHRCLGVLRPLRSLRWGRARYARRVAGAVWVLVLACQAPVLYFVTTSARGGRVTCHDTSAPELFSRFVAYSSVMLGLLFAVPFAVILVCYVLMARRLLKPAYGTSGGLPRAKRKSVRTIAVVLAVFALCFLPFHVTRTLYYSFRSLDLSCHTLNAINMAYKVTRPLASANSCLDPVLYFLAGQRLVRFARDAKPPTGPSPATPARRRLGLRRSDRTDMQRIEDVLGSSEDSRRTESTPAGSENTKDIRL

SMILES | EC50 (human P2Y1 receptor) | EC50 (human P2Y2 receptor) | EC50 (human P2Y6 receptor) | EC50 (human P2Y4 receptor)
Nc1ncnc2c1ncn2[C@@H]1O[C@H](CO[P@](=O)(O)O[P@](=O)(O)OC[C@H]2O[C@@H](n3cnc4c(N)ncnc43)[C@H](O)[C@@H]2O)[C@@H](O)[C@H]1O [compound 13, AP2A] | 4.25 µM | – | – | –
Nc1ncnc2c1ncn2[C@@H]1O[C@H](COP(=O)(O)OP(=O)(O)OC[C@H]2O[C@@H](n3ccc(=O)[nH]c3=O)[C@H](O)[C@@H]2O)[C@@H](O)[C@H]1O [compound 14, AP2U] | 2.85 µM | 23.4 µM | – | –
Nc1ccn([C@@H]2O[C@H](COP(=O)(O)OP(=O)(O)OC[C@H]3O[C@@H](n4cnc5c(N)ncnc54)[C@H](O)[C@@H]3O)[C@@H](O)[C@H]2O)c(=O)n1 [compound 15, AP2C] | 2.11 µM | 6.9 µM | 18.8 µM | –
Nc1nc2c(ncn2[C@@H]2O[C@H](COP(=O)(O)OP(=O)(O)OC[C@H]3O[C@@H](n4cnc5c(N)ncnc54)[C@H](O)[C@@H]3O)[C@@H](O)[C@H]2O)c(=O)[nH]1 [compound 16, AP2G] | 26.5 µM | 1.3 µM | 9.14 µM | 1.5 µM
Nc1nc2c(ncn2[C@H]2C[C@H](O)[C@@H](COP(=O)(O)OP(=O)(O)OC[C@H]3O[C@@H](n4cnc5c(N)ncnc54)[C@H](O)[C@@H]3O)O2)c(=O)[nH]1 [compound 17, AP2dG] | 24.6 µM | – | > 10 µM | –
O=c1[nH]c(=S)ccn1[C@@H]1O[C@H](COP(=O)(O)OP(=O)(O)OC[C@H]2O[C@@H](n3ccc(=S)[nH]c3=O)[C@H](O)[C@@H]2O)[C@@H](O)[C@H]1O [compound 23, 4-thioUP24-thioU] | > 10 µM | 29.1 µM | 25.2 µM | 33.9 µM
Nc1ncnc2c1ncn2[C@@H]1O[C@H](COP(=O)(O)OP(=O)(O)OP(=O)(O)OC[C@H]2O[C@@H](n3cnc4c(N)ncnc43)[C@H](O)[C@@H]2O)[C@@H](O)[C@H]1O [compound 25, AP3A] | 0.011 µM | 28.5 µM | – | –
Nc1ncnc2c1ncn2[C@@H]1O[C@H](COP(=O)(O)OP(=O)(O)OP(=O)(O)OC[C@H]2O[C@@H](n3ccc(=O)[nH]c3=O)[C@H](O)[C@@H]2O)[C@@H](O)[C@H]1O [compound 26, AP3U] | 0.039 µM | 2 µM | 0.17 µM | –
Nc1ccn([C@@H]2O[C@H](COP(=O)(O)OP(=O)(O)OP(=O)(O)OC[C@H]3O[C@@H](n4cnc5c(N)ncnc54)[C@H](O)[C@@H]3O)[C@@H](O)[C@H]2O)c(=O)n1 [compound 27, AP3C] | 0.085 µM | 6 µM | > 10 µM | –
Nc1nc2c(ncn2[C@@H]2O[C@H](COP(=O)(O)OP(=O)(O)OP(=O)(O)OC[C@H]3O[C@@H](n4cnc5c(N)ncnc54)[C@H](O)[C@@H]3O)[C@@H](O)[C@H]2O)c(=O)[nH]1 [compound 28, AP3G] | 0.12 µM | 0.23 µM | 1.53 µM | 0.52 µM
Nc1ncnc2c1ncn2[C@@H]1O[C@H](COP(=O)(O)OP(=O)(O)OP(=O)(O)OC[C@H]2O[C@@H](n3cnc4c(=O)[nH]cnc43)[C@H](O)[C@@H]2O)[C@@H](O)[C@H]1O [compound 29, AP3I] | 0.11 µM | 1.2 µM | 1.06 µM | 2.55 µM
Nc1ncnc2c1ncn2[C@@H]1O[C@H](COP(=O)(O)OP(=O)(O)OP(=O)(O)OP(=O)(O)OC[C@H]2O[C@@H](n3cnc4c(N)ncnc43)[C@H](O)[C@@H]2O)[C@@H](O)[C@H]1O [compound 39, AP4A] | 0.32 µM | 0.054 µM | – | –
Nc1ncnc2c1ncn2[C@@H]1O[C@H](COP(=O)(O)OP(=O)(O)OP(=O)(O)OP(=O)(O)OC[C@H]2O[C@@H](n3ccc(=O)[nH]c3=O)[C@H](O)[C@@H]2O)[C@@H](O)[C@H]1O [compound 40, AP4U] | 4.75 µM | 0.35 µM | – | 1.45 µM
Nc1ccn([C@@H]2O[C@H](COP(=O)(O)OP(=O)(O)OP(=O)(O)OP(=O)(O)OC[C@H]3O[C@@H](n4cnc5c(N)ncnc54)[C@H](O)[C@@H]3O)[C@@H](O)[C@H]2O)c(=O)n1 [compound 41, AP4C] | 0.75 µM | 0.15 µM | – | –
Nc1ncnc2c1ncn2[C@@H]1O[C@H](COP(=O)(O)OP(=O)(O)OP(=O)(O)OP(=O)(O)OC[C@H]2O[C@@H](n3cnc4c(=O)[nH]cnc43)[C@H](O)[C@@H]2O)[C@@H](O)[C@H]1O [compound 42, AP4I] | 0.55 µM | 0.17 µM | – | –
O=c1ccn([C@@H]2O[C@H](COP(=O)(O)OP(=O)(O)OP(=O)(O)OP(=O)(O)OC[C@H]3O[C@@H](n4ccc(=S)[nH]c4=O)[C@H](O)[C@@H]3O)[C@@H](O)[C@H]2O)c(=O)[nH]1 [compound 47, UP44-thioU] | – | 0.04 µM | 190 µM | 0.17 µM
O=c1[nH]c(=S)ccn1[C@@H]1O[C@H](COP(=O)(O)OP(=O)(O)OP(=O)(O)OP(=O)(O)OC[C@H]2O[C@@H](n3ccc(=S)[nH]c3=O)[C@H](O)[C@@H]2O)[C@@H](O)[C@H]1O [compound 56, 4-thioUP44-thioU] | – | 0.082 µM | 6.82 µM | 0.09 µM

Second part, the compound after the results:

EC50 (human P2Y1 receptor) | EC50 (human P2Y2 receptor) | EC50 (human P2Y6 receptor) | EC50 (human P2Y4 receptor) | SMILES
> 10 µM | 29 µM | > 10 µM | – | Nc1nc2c(ncn2[C@H]2C[C@H](O)[C@@H](COP(=O)(O)OP(=O)(O)OC[C@H]3O[C@@H](n4ccc(=O)[nH]c4=O)[C@H](O)[C@@H]3O)O2)c(=O)[nH]1 [compound 20, UP2dG]
> 10 µM | > 10 µM | – | – | Nc1ccn([C@@H]2O[C@H](COP(=O)(O)OP(=O)(O)OP(=O)(O)OC[C@H]3O[C@@H](n4cnc5c(=O)[nH]cnc54)[C@H](O)[C@@H]3O)[C@@H](O)[C@H]2O)c(=O)n1 [compound 35, CP3I]
17 µM | 3.1 µM | 0.81 µM | 40 µM | Nc1ccn([C@@H]2O[C@H](COP(=O)(O)OP(=O)(O)OP(=O)(O)OC[C@H]3O[C@@H](n4ccc(=O)[nH]c4=O)C[C@@H]3O)[C@@H](O)[C@H]2O)c(=O)n1 [compound 36, CP3dU]
– | 0.23 µM | > 10 µM | 0.47 µM | O=c1ccn([C@@H]2O[C@H](COP(=O)(O)OP(=O)(O)OP(=O)(O)OP(=O)(O)OC[C@H]3O[C@@H](n4cnc5c(=O)[nH]cnc54)C[C@@H]3O)[C@@H](O)[C@H]2O)c(=O)[nH]1 [compound 48, UP4dI]
– | 0.06 µM | 1.68 µM | 0.14 µM | Nc1nc2c(ncn2[C@H]2C[C@H](O)[C@@H](COP(=O)(O)OP(=O)(O)OP(=O)(O)OP(=O)(O)OC[C@H]3O[C@@H](n4ccc(=O)[nH]c4=O)[C@H](O)[C@@H]3O)O2)c(=O)[nH]1 [compound 49, UP4dG]
6.13 µM | 0.59 µM | 3.32 µM | 0.22 µM | Nc1ccn([C@@H]2O[C@H](COP(=O)(O)OP(=O)(O)OP(=O)(O)OP(=O)(O)OC[C@H]3O[C@@H](n4ccc(=O)[nH]c4=O)[C@H](O)[C@@H]3O)[C@@H](O)[C@@H]2O)c(=O)n1 [compound 50, UP4araC]
3.49 µM | 0.05 µM | 4.2 µM | 0.07 µM | Nc1ncnc2c1ncn2[C@H]1C[C@H](O)[C@@H](COP(=O)(O)OP(=O)(O)OP(=O)(O)OP(=O)(O)OC[C@H]2O[C@@H](n3ccc(=O)[nH]c3=O)[C@H](O)[C@@H]2O)O1 [compound 52, UP4dA]
– | 0.036 µM | 5.22 µM | 0.11 µM | Nc1ccn([C@@H]2O[C@H](COP(=O)(O)OP(=O)(O)OP(=O)(O)OP(=O)(O)OC[C@H]3O[C@@H](n4ccc(=S)[nH]c4=O)[C@H](O)[C@@H]3O)[C@@H](O)[C@H]2O)c(=O)n1 [compound 55, CP44-thioU]
